Measured values: the NIST ThermoML archive (doi:10.1021/acs.jced.5b00820)

Test: xn = mol fraction of the nth substance listed
Settings: 102.2 kPa, Liquid, Vibrating tube method

C[Si](C)(O[Si](C)(C)c1ccccc1)c1ccccc1 [1,3-diphenyltetramethyldisiloxane] + C[Si]1(C)O[Si](C)(C)O[Si](C)(C)O[Si](C)(C)O1
mass density [kg/m3]
Settings	308.15 K	313.15 K	318.15 K	323.15 K	328.15 K
x1 = 0.05	940.79	935.08	929.44	923.79	918.1
x1 = 0.0999	942.6	937.01	931.46	925.91	920.32
x1 = 0.1503	944.43	938.95	933.49	928.04	922.57
x1 = 0.2005	946.19	940.8	935.45	930.1	924.72
x1 = 0.2507	947.88	942.59	937.33	932.06	926.77
x1 = 0.2963	949.39	944.19	939.02	933.84	928.63
x1 = 0.3509	951.16	946.05	940.97	935.88	930.78
x1 = 0.4001	952.67	947.66	942.65	937.65	932.62
x1 = 0.4471	954.04	949.1	944.16	939.26	934.29
x1 = 0.4968	955.6	950.74	945.91	941.08	936.23
x1 = 0.5512	957.17	952.39	947.64	942.9	938.15
x1 = 0.6003	958.51	953.82	949.15	944.46	939.79
x1 = 0.6502	959.83	955.22	950.62	946.01	941.41
x1 = 0.7001	961.15	956.6	952.09	947.56	943.03
x1 = 0.7497	962.4	957.92	953.48	949.04	944.59
x1 = 0.8	963.64	959.25	954.87	950.49	946.11
x1 = 0.85	964.8	960.48	956.18	951.88	947.58
x1 = 0.896	965.82	961.53	957.3	953.03	948.8
x1 = 0.9497	967	962.79	958.63	954.45	950.29
x1 = 1	968.05	963.92	959.8	955.69	951.58

C[Si](C)(O[Si](C)(C)c1ccccc1)c1ccccc1 [1,3-diphenyltetramethyldisiloxane] + C[Si]1(CCC(F)(F)F)O[Si](C)(CCC(F)(F)F)O[Si](C)(CCC(F)(F)F)O1
mass density [kg/m3]
Settings	308.15 K	313.15 K	318.15 K	323.15 K	328.15 K
x1 = 0.0501	1225.8	1219.39	1212.88	1206.4	1199.88
x1 = 0.1001	1214.52	1208.2	1201.82	1195.45	1189.07
x1 = 0.1499	1203.4	1197.13	1190.88	1184.63	1178.37
x1 = 0.2005	1191.71	1185.57	1179.46	1173.35	1167.25
x1 = 0.2497	1180.12	1174.1	1168.1	1162.13	1156.13
x1 = 0.3	1167.98	1162.08	1156.21	1150.35	1144.49
x1 = 0.3431	1157.27	1151.54	1145.79	1140.01	1134.24
x1 = 0.4001	1142.74	1137.19	1131.56	1125.93	1120.32
x1 = 0.45	1130.1	1124.64	1119.13	1113.61	1108.09
x1 = 0.4998	1117.1	1111.69	1106.32	1100.93	1095.54
x1 = 0.5482	1104.11	1098.84	1093.55	1088.31	1083.03
x1 = 0.5996	1089.99	1084.84	1079.71	1074.57	1069.43
x1 = 0.6501	1075.78	1070.7	1065.65	1060.62	1055.6
x1 = 0.7	1061.47	1056.57	1051.69	1046.82	1041.93
x1 = 0.75	1046.74	1041.96	1037.22	1032.47	1027.7
x1 = 0.8001	1031.67	1027.02	1022.41	1017.79	1013.17
x1 = 0.8499	1016.33	1011.73	1007.33	1002.84	998.35
x1 = 0.8998	1000.6	996.22	991.87	987.37	983.15
x1 = 0.95	984.46	980.22	976.02	971.79	967.58
x1 = 1	967.9	963.8	959.75	955.65	951.57

C[Si](C)(O[Si](C)(C)c1ccccc1)c1ccccc1 [1,3-diphenyltetramethyldisiloxane] + C=C[Si](C)(C)O[Si](C)(C)C=C
mass density [kg/m3]
Settings	308.15 K	313.15 K	318.15 K	323.15 K	328.15 K
x1 = 0.0502	809.57	804.7	799.79	794.89	789.94
x1 = 0.1	820.63	815.84	811.01	806.21	801.35
x1 = 0.1487	831.07	826.38	821.62	816.9	812.12
x1 = 0.2002	841.7	837.11	832.41	827.77	823.05
x1 = 0.2498	851.61	847.08	842.45	837.87	833.22
x1 = 0.3	861.28	856.78	852.19	847.66	843.06
x1 = 0.3503	870.64	866.2	861.68	857.2	852.68
x1 = 0.3994	879.46	875.05	870.55	866.12	861.63
x1 = 0.4502	888.32	883.96	879.52	875.17	870.72
x1 = 0.5001	896.73	892.42	888.02	883.7	879.29
x1 = 0.5498	904.84	900.61	896.23	891.95	887.57
x1 = 0.6002	912.8	908.56	904.21	899.93	895.59
x1 = 0.6502	920.47	916.26	911.95	907.71	903.38
x1 = 0.7004	927.9	923.73	919.47	915.27	911
x1 = 0.7504	935.1	930.94	926.72	922.51	918.26
x1 = 0.8003	942.07	937.9	933.7	929.52	925.3
x1 = 0.8498	948.8	944.66	940.48	936.33	932.14
x1 = 0.8986	955.23	951.09	946.94	942.83	938.64
x1 = 0.9502	961.82	957.69	953.57	949.47	945.33
x1 = 1	967.99	963.87	959.76	955.68	951.57

C[Si](C)(O[Si](C)(C)c1ccccc1)c1ccccc1 [1,3-diphenyltetramethyldisiloxane] + C=C[Si]1(C)O[Si](C)(C=C)O[Si](C)(C=C)O[Si](C)(C=C)O1
mass density [kg/m3]
Settings	308.15 K	313.15 K	318.15 K	323.15 K	328.15 K
x1 = 0.0511	972.67	967.57	962.46	957.29	952.25
x1 = 0.1004	972.68	967.63	962.58	957.53	952.52
x1 = 0.1503	972.67	967.67	962.67	957.67	952.66
x1 = 0.2	972.66	967.72	962.77	957.83	952.88
x1 = 0.2537	972.63	967.74	962.86	957.97	953.1
x1 = 0.3001	972.56	967.72	962.9	958.06	953.26
x1 = 0.3507	972.42	967.63	962.84	958.04	953.25
x1 = 0.4002	972.3	967.56	962.83	958.06	953.33
x1 = 0.4503	972.13	967.44	962.77	958.08	953.42
x1 = 0.4999	971.87	967.23	962.58	957.92	953.25
x1 = 0.5501	971.69	967.12	962.54	957.94	953.39
x1 = 0.597	971.42	966.89	962.34	957.8	953.24
x1 = 0.6498	971.17	966.7	962.23	957.76	953.3
x1 = 0.7005	970.8	966.35	961.92	957.49	953.06
x1 = 0.7492	970.45	966.08	961.71	957.33	952.96
x1 = 0.8001	970.05	965.73	961.41	957.09	952.78
x1 = 0.8497	969.63	965.36	961.11	956.85	952.59
x1 = 0.8999	969.05	964.82	960.59	956.35	952.09
x1 = 0.9502	968.57	964.4	960.23	956.03	951.87
x1 = 1	968.05	963.94	959.84	955.74	951.65
